This is an account of results in patent US10526319B2, “Halogenated quinazolin-THF-amines as PDE1 inhibitors” (H. Lundbeck A/S, priority 2014, dated 2020).

Holding throughout (format): biochemical
Common to all, as to settings: 15 nM tritium labelled cAMP, 1 h at room temperature

The target in test [1] is PDE1C (Homo sapiens, UniProt Q14123). Put plainly: PDE1 inhibition assay (SPA, tritium labelled cAMP), PDE1C. Here is the method:
(§1) PDE1A, PDE1B and PDE1C assays were performed as follows: the assays was performed in 60 μL samples containing a fixed amount of the PDE1 enzym1 (sufficient to convert 20-25% of the cyclic nucleotide substrate), a buffer (50 mM HEPES pH 7.6; 10 mM MgCl2; 0.02% Tween20), 0.1 mg/ml BSA, 15 nM tritium labelled cAMP and varying amounts of inhibitors. Reactions were initiated by addition of the cyclic nucleotide substrate, and reactions were allowed to proceed for 1 h at room temperature before being terminated through mixing with 20 μL (0.2 mg) yttrium silicate SPA beads (PerkinElmer). The beads were allowed to settle for 1 h in the dark before the plates were counted in a Wallac 1450 Microbeta counter. The measured signals were converted to activity relative to an uninhibited control (100%) and IC50 values were calculated using XlFit (model 205, IDBS).

Test [2] deals with PDE1B (Homo sapiens, UniProt Q01064). The experiment in a line: PDE1 inhibition assay (SPA, tritium labelled cAMP), PDE1B. Here is the method:
as §1

The target of test [3] is PDE1A (Homo sapiens, UniProt P54750). Put plainly: PDE1 inhibition assay (SPA, tritium labelled cAMP), PDE1A. The method, then: as §1
Chain of PDE1A (P54750 whole entry): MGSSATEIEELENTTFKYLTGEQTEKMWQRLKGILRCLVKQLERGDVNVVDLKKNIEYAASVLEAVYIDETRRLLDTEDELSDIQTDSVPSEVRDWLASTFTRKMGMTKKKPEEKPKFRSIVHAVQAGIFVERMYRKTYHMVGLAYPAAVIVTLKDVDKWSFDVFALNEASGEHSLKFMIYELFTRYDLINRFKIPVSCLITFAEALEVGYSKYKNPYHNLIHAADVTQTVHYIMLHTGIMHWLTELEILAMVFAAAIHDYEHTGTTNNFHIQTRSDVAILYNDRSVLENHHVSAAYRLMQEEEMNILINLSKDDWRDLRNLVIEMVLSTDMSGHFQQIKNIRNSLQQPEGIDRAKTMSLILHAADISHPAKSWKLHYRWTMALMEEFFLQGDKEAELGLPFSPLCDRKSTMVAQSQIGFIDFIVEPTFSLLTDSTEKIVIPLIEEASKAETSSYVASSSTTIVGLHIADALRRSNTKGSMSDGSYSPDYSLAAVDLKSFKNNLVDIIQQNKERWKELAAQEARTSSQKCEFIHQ

Chain of PDE1B (Q01064 whole entry): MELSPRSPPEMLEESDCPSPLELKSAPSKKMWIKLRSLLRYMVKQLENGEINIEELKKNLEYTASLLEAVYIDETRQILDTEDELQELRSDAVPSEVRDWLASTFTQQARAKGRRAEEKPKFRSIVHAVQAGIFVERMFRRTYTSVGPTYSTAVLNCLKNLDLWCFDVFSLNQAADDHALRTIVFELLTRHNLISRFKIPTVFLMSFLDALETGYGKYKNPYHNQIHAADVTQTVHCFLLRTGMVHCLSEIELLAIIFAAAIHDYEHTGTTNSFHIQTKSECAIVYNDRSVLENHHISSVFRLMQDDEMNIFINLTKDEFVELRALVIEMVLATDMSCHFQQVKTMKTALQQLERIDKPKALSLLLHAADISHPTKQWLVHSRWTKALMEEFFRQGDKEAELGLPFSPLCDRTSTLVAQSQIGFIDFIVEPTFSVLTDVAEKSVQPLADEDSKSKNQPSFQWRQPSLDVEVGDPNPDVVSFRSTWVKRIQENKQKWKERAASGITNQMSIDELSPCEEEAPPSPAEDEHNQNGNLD
Chain of PDE1C (Q14123 whole entry): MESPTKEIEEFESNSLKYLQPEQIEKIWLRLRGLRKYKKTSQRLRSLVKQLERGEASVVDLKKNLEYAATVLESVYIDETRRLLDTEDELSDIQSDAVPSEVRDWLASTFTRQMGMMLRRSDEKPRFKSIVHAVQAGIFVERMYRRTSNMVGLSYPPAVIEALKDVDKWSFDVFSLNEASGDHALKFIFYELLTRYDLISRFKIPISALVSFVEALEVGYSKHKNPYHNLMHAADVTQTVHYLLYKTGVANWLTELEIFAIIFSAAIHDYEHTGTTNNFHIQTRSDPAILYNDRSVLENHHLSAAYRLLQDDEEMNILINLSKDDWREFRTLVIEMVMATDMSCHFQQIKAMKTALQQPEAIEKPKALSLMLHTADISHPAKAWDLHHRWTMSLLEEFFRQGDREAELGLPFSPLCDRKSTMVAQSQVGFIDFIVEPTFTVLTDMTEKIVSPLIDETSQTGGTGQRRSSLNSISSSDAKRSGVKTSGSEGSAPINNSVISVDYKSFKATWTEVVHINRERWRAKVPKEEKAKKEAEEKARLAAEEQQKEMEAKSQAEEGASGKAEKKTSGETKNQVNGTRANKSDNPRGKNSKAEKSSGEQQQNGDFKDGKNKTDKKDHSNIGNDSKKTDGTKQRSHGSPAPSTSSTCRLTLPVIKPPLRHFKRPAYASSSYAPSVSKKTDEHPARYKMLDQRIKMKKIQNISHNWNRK

With `COc1ccc2c(NC3CCOC3C)ncnc2c1Cl` (single isomer, unassigned) [5 stereoisomer 2], the values for the IC50 in test [1], in test [2] and in test [3] were 35 nM, 37 nM and 230 nM, respectively.
The corresponding values for `COc1ccc2c(NC3(C)CCOC3C)ncnc2c1F` (single isomer, unassigned) [17 Stereoisomer 1] are 98 nM, 27 nM and 184 nM.
Take `COc1ccc2c(N(C)C3(C)CCOC3C)ncnc2c1Cl` (single isomer, unassigned) [13 Stereoisomer 4]: the IC50 turned out to be 13 nM in test [1], 26 nM in test [2] and 300 nM in test [3].
With `COc1ccc2c(N(C)C3(C)CCOC3C)ncnc2c1F` (single isomer, unassigned) [19 Stereoisomer 4], the concentration for half-maximal inhibition (IC50) was found to be 34 nM in test [1], 10 nM in test [2] and 97 nM in test [3].
The corresponding values for `COc1ccc2c(NC3(C)CCOC3C)ncnc2c1Cl` (single isomer, unassigned) [12 Stereoisomer 4] are 4 nM, 7 nM and 76 nM.
Consider `COc1ccc2c(N3CC[C@@H]4OCCC43)ncnc2c1F` (single isomer, unassigned) [8 Stereoisomer 2], for which the IC50 in test [1] was 2500 nM; in test [2], 2200 nM; in test [3], 4030 nM.
The corresponding values for `COc1ccc2c(NC3(C)CCOC3C)ncnc2c1F` (single isomer, unassigned) [17 Stereoisomer 4] are 440 nM, 140 nM and 408 nM.
With `COc1ccc2c(N(C)C3(C)CCOC3)ncnc2c1F` (single isomer, unassigned) [15 Stereoisomer 2], the figures for the half-maximal inhibitory concentration (IC50) in test [1], in test [2] and in test [3] were 81 nM, 47 nM and 333 nM, respectively.
For `COc1ccc2c(NC3CCOC3C)ncnc2c1F` (single isomer, unassigned) [3 Stereoisomer 1] the same measures were 1800 nM, 650 nM and 1900 nM.
The corresponding values for `COc1ccc2c(N(C)C3(C)CCOC3C)ncnc2c1Cl` (single isomer, unassigned) [13 Stereoisomer 2] are 17 nM, 34 nM and 207 nM.
For `COc1ccc2c(NC3CCOC3C)ncnc2c1Cl` (single isomer, unassigned) [5 stereoisomer 3] the same measures were 250 nM, 460 nM and 1500 nM.
As to `COc1ccc2c(NC3(C)CCOC3C)ncnc2c1Cl` (single isomer, unassigned) [12 Stereoisomer 1], the IC50 in test [1] came to 130 nM; in test [2], 200 nM; in test [3] it was 853 nM.
The corresponding values for `COc1ccc2c(NC3(C)CCOC3C)ncnc2c1Cl` (single isomer, unassigned) [12 Stereoisomer 2] are 38 nM, 65 nM and 286 nM.
On to `COc1ccc2c(N(C)C3(C)CCOC3C)ncnc2c1Cl` (single isomer, unassigned) [13 Stereoisomer 1], for which the concentration for half-maximal inhibition (IC50) in test [1] turned out to be 200 nM; in test [2] it was 410 nM; in test [3], 2550 nM.
On to `COc1ccc2c(NC3(C)CCOC3)ncnc2c1Cl` (single isomer, unassigned) [7 stereoisomer 2], for which the IC50 in test [1] was 48 nM; in test [2] it was 75 nM; in test [3] it was 490 nM.
`COc1ccc2c(NC3CCOC3)ncnc2c1Cl` (single isomer, unassigned) [4 Stereoisomer 1]: the IC50 amounted to 200 nM in test [1], 310 nM in test [2] and 790 nM in test [3].
For `COc1ccc2c(N(C)C3(C)CCOC3C)ncnc2c1F` (single isomer, unassigned) [19 Stereoisomer 2] the same measures were 55 nM, 32 nM and 185 nM.
